Results: US20220289732A1, “HETEROCYCLIC WDR5 INHIBITORS AS ANTI-CANCER COMPOUNDS” (NOVARTIS AG, priority 2019, published 2022)

Key:
[1] = tested on: MV4-11 cells; test: MV4-11 6-day cell growth CTG (CellTiter-Glo) assay; type: cell-based; settings: Homo sapiens, MV4-11, 144 h, 6 days, read-out: (c) MLL/WDR5 cell proliferation assay//MLL/WDR5 proliferation MV4:11 Qualified AC50
Summary of the method: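 Exponentially growing MV4-11 AML cells (RPMI 1640, 10% FBS) seeded at 300 cells/well with 12-point 1:3 compound dilutions, top final concentration 50 μM. Viability read by CellTiter-Glo luminescence after 6 days at 37° C; % inhibition vs DMSO-only wells fitted to dose-response for IC50.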

[2] = biological target: wild type MLL1 four-member complex (MLL1-4C) (Homo sapiens, UniProt P61964); test: MLL1 LC-MS assay (SAH production); type: biochemical; settings: read-out: (b) MLL LCMS Peptide Val.v.1 Qualified AC50
Summary of the method: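 MLL1-4C (30 nM final) was preincubated 20 min with compound (3-fold dilutions, 8 or 12 points) and SAM in Tris-HCl pH 8.0 buffer. H3K4me0 peptide (histone H3[1-21]-biotin) was then added, giving final 2.5 μM SAM and 10 μM substrate, and reactions ran 120 min at rt. After TFA/d4-SAH quench, SAH was quantified by LC-MS/MS and IC50 fitted from control-normalised activity.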

[3] = biological target: WDR5 (Homo sapiens, UniProt P61964); test: WDR5 HTRF binding assay; settings: read-out: (a) WDR5 HTRF Pep Val v.1[Inhibitor/IC50]Qualified AC50
Summary of the method: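 6 nM WDR5 and 20 nM biotin-MLL1 WIN peptide (3762-3773) were incubated with compound (12-point, 3-fold dilutions) in pH 7.5 Hepes/NaCl/DTT buffer for 20 min at rt. Streptavidin-APC plus anti-His-Eu were then added for 1 hr, with HTRF read at 665/615. IC50 was fit from control-normalized activity; the counter assay used 15 nM biotin-PEG-His peptide.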

Compound | AC50 [1] | AC50 [2] | IC50 [3]
CCOc1cc(C(C)N2CCc3c(cc(CCN(C)CC)cc3-c3cc4[nH]cnc4nc3C)C2=O)ncc1C#N (stereo not drawn) [Example 206, 4-ethoxy-6-(1-(7-(2-(ethyl(methyl)amino)ethyl)-5-(5-methyl-1H-imidazo[4,5-b]pyridin-6-yl)-1-oxo-3,4-dihydroisoquinolin-2(1H)-yl)ethyl)nicotinonitrile] | 10 to 1000 nM | 10 to 1000 nM | 10 to 1000 nM
CCOc1cc(C(C)N2CCc3c(cc(CCN(C)CC)cc3N3CCCC3)C2=O)ncc1C#N (stereo not drawn) [Example 207, 4-ethoxy-6-(1-(7-(2-(ethyl(methyl)amino)ethyl)-1-oxo-5-(pyrrolidin-1-yl)-3,4-dihydroisoquinolin-2(1H)-yl)ethyl)nicotinonitrile] | 1000 to 25000 nM | 10 to 1000 nM | 10 to 1000 nM
CCOc1cc(C(C)N2CCc3c(cc(CCN(C)CC)cc3-n3ccnc3)C2=O)ncc1C#N (stereo not drawn) [Example 208] | 1000 to 25000 nM | 10 to 1000 nM | 10 to 1000 nM
CCOc1cc([C@H](C)N2CCc3c(cc(CCN(C)CC)cc3N3CC[C@H](O)C3)C2=O)ncc1C#N [Example 210] | 1000 to 25000 nM | 10 to 1000 nM | 10 to 1000 nM
CCOc1cc(C(C)N2CCc3c(cc(CCN(C)CC)cc3-c3cc(C)nnc3C)C2=O)ncc1C (stereo not drawn) [Example 211, 5-(3,6-dimethylpyridazin-4-yl)-2-(1-(4-ethoxy-5-methylpyridin-2-yl)ethyl)-7-(2-(ethyl(methyl)amino)ethyl)-3,4-dihydroisoquinolin-1(2H)-one] | 10 to 1000 nM | 10 to 1000 nM | < 10 nM
CCOc1cc(CN2CCc3c(cc(CCN(C)CC)cc3-c3cc(C)nnc3C)C2=O)ncc1C [Example 212, 5-(3,6-dimethylpyridazin-4-yl)-2-((4-ethoxy-5-methylpyridin-2-yl)methyl)-7-(2-(ethyl(methyl)amino)ethyl)-3,4-dihydroisoquinolin-1(2H)-one] | 10 to 1000 nM | 10 to 1000 nM | < 10 nM
CCOc1cc([C@H](C)N2CCc3c(cc(CCN4C[C@@H](O)[C@H]4C)cc3-c3cn(C)nc3C(F)F)C2=O)ncc1C#N [Example 213, 6-((S)-1-(5-(3-(difluoromethyl)-1-methyl-1H-pyrazol-4-yl)-7-(2-((2R,3R)-3-hydroxy-2-methylazetidin-1-yl)ethyl)-1-oxo-3,4-dihydroisoquinolin-2(1H)-yl)ethyl)-4-ethoxynicotinonitrile] | 10 to 1000 nM | 10 to 1000 nM | < 10 nM
CCOc1cc([C@H](C)N2CCc3c(cc(CCN4C[C@@H](O)[C@H]4C)cc3-c3cc(N)cnc3C(F)(F)F)C2=O)ncc1C#N [Example 214] | 10 to 1000 nM | 10 to 1000 nM | < 10 nM
CCOc1cc([C@H](C)N2CCc3c(cc(CCN4C[C@@H](O)[C@H]4C)cc3-c3cn(C)c(=O)cc3Cl)C2=O)ncc1C#N [Example 215] | 10 to 1000 nM | 10 to 1000 nM | < 10 nM
CCOc1cc([C@H](C)N2CCc3c(cc(CCN4C[C@@H](O)[C@H]4C)cc3-c3cn(C)c(=O)cc3C)C2=O)ncc1C#N [Example 216] | 10 to 1000 nM | 10 to 1000 nM | < 10 nM
CCOc1cc([C@H](C)N2CCc3c(cc(CCN4C[C@@H](O)[C@H]4C)cc3-c3ccc(F)nc3C)C2=O)ncc1C#N [Example 217] | 10 to 1000 nM | 10 to 1000 nM | < 10 nM
CCOc1cc([C@H](C)N2CCc3c(cc(CCN4C[C@@H](O)[C@H]4C)cc3-c3cc(C(F)F)cnc3C)C2=O)ncc1C#N [Example 218] | 10 to 1000 nM | 10 to 1000 nM | < 10 nM
CCOc1cc([C@H](C)N2CCc3c(cc(CCN4C[C@@H](O)[C@H]4C)cc3-c3ccc(N)nc3C)C2=O)ncc1C#N [Example 219] | 10 to 1000 nM | 10 to 1000 nM | < 10 nM
CCOc1cc([C@H](C)N2CCc3c(cc(CCN4C[C@@H](O)[C@H]4C)cc3-c3cc(C)cnc3C)C2=O)ncc1C#N [Example 220] | 10 to 1000 nM | 10 to 1000 nM | < 10 nM
CCOc1cc([C@H](C)N2CCc3c(cc(CCN4C[C@@H](O)[C@H]4C)cc3-c3cc(C)ncc3C)C2=O)ncc1C#N [Example 221] | 10 to 1000 nM | 10 to 1000 nM | < 10 nM
CCOc1cc(CN2CCc3c(cc(CCN4C[C@@H](O)[C@H]4C)cc3-c3ccc(F)nc3C)C2=O)ncc1C#N [Example 222] | 10 to 1000 nM | 10 to 1000 nM | 10 to 1000 nM
CCOc1cc([C@@H](C)N2CCc3c(cc(CCN4C[C@@H](O)[C@H]4C)cc3-c3cc(C)ncc3C)C2=O)ncc1C#N [Example 223] | 10 to 1000 nM | 10 to 1000 nM | 10 to 1000 nM
CCOc1cc(CN2CCc3c(cc(CCN4C[C@@H](O)[C@H]4C)cc3-c3cn(C)c(=O)cc3C(F)(F)F)C2=O)ncc1C#N [Example 224] | 10 to 1000 nM | 10 to 1000 nM | 10 to 1000 nM

Compound | AC50 [1] | AC50 [2] | IC50 [3]
CCOc1cc([C@H](C)N2CCc3c(cc(CCN4CC[C@@H](O)[C@H]4C)cc3-c3ccc(F)nc3C)C2=O)ncc1C#N [Example 225, 4-ethoxy-6-((S)-1-(5-(6-fluoro-2-methylpyridin-3-yl)-7-(2-((2R, 3R)-3-hydroxy-2-methylpyrrolidin-1-yl)ethyl)-1-oxo-3,4-dihydroisoquinolin-2(1H)-yl)ethyl)nicotinonitrile] | 10 to 1000 nM | 10 to 1000 nM | < 10 nM
CCOc1cc([C@H](C)N2CCc3c(cc(CCN4C[C@@H](O)C[C@H]4C)cc3-c3ccc(F)nc3C)C2=O)ncc1C#N [Example 226] | 10 to 1000 nM | 10 to 1000 nM | < 10 nM
CCOc1cc([C@H](C)N2CCc3c(cc(CCN4C[C@@H](O)C[C@@H]4C)cc3-c3ccc(F)nc3C)C2=O)ncc1C#N [Example 227] | 1000 to 25000 nM | 10 to 1000 nM | 10 to 1000 nM
CCOc1cc([C@H](C)N2CCc3c(cc(CCN(C)CCO)cc3-c3cc(F)cnc3C(F)(F)F)C2=O)ncc1C#N [Example 228, (S)-4-ethoxy-6-(1-(5-(5-fluoro-2-(trifluoromethyl)pyridin-3-yl)-7-(2-((2-hydroxyethyl)(methyl)amino)ethyl)-1-oxo-3,4-dihydroisoquinolin-2(1H)-yl)ethyl)nicotinonitrile] | 10 to 1000 nM | 10 to 1000 nM | < 10 nM
CCOc1cc([C@H](C)N2CCc3c(cc(CCN(C)C4CC4)cc3-c3ccc(F)nc3C)C2=O)ncc1C#N [Example 229] | 10 to 1000 nM | 10 to 1000 nM | < 10 nM
CCOc1cc([C@H](C)N2CCc3c(cc(CCN(C)CCO)cc3-c3cc(N)cnc3C(F)(F)F)C2=O)ncc1C#N [Example 230] | 10 to 1000 nM | 10 to 1000 nM | < 10 nM
CCOc1cc(C(C)N2CCc3c(cc(CCN(C)C4COC4)cc3-c3ccc(F)nc3C)C2=O)ncc1C#N (stereo not drawn) [Example 231] | 10 to 1000 nM | 10 to 1000 nM | < 10 nM
CCOc1cc([C@H](C)N2CCc3c(cc(CCN(C)CCOC)cc3-c3cc(C)ncc3C)C2=O)ncc1C#N [Example 232] | 10 to 1000 nM | 10 to 1000 nM | < 10 nM
CCOc1cc(C(C)N2CCc3c(cc(CCN(C)CCOC)cc3-c3cn(C)c(=O)cc3Cl)C2=O)ncc1C#N (stereo not drawn) [Example 233] | 10 to 1000 nM | 10 to 1000 nM | < 10 nM
CCOc1cc([C@H](C)N2CCc3c(cc(CCN(C)CCOC)cc3-c3ccc(F)nc3C)C2=O)ncc1C#N [Example 234] | 10 to 1000 nM | 10 to 1000 nM | < 10 nM
CCOc1cc([C@H](C)N2CCc3c(cc(CCN4CC[C@H]4C)cc3-c3ccc(F)nc3C)C2=O)ncc1C#N [Example 235] | 10 to 1000 nM | 10 to 1000 nM | < 10 nM
CCOc1cc(C(C)N2CCc3c(cc(CCN(C)CCF)cc3-c3ccc(F)nc3C)C2=O)ncc1C#N (stereo not drawn) [Example 236] | 10 to 1000 nM | 10 to 1000 nM | < 10 nM
CCOc1cc(C(C)N2CCc3c(cc(CCN(C)CCF)cc3-c3cn(C)c(=O)cc3Cl)C2=O)ncc1C#N (stereo not drawn) [Example 237] | 10 to 1000 nM | 10 to 1000 nM | < 10 nM
CCOc1cc([C@H](C)N2CCc3c(cc(CCN(C)CCO)cc3-c3cn(C)c(=O)cc3Cl)C2=O)ncc1C#N [Example 238] | 10 to 1000 nM | 10 to 1000 nM | < 10 nM
CCOc1cc([C@H](C)N2CCc3c(cc(CCN(C)CC(C)O)cc3-c3cn(C)c(=O)cc3Cl)C2=O)ncc1C#N (stereo partly drawn) [Example 239] | 10 to 1000 nM | 10 to 1000 nM | < 10 nM
CCOc1cc([C@H](C)N2CCc3c(cc(CCN(C)CCOC)cc3-c3cn(C)c(=O)cc3Cl)C2=O)ncc1C#N [Example 240] | 10 to 1000 nM | 10 to 1000 nM | < 10 nM
CCOc1cc(C(C)N2CCc3c(cc(CCN(C)CCF)cc3-c3cn(C)nc3C)C2=O)ncc1C#N (stereo not drawn) [Example 241] | 10 to 1000 nM | 10 to 1000 nM | 10 to 1000 nM
CCOc1cc([C@H](C)N2CCc3c(cc(CCN(C)CC(C)O)cc3-c3ccc(F)nc3C)C2=O)ncc1C#N (stereo partly drawn) [Example 242] | 10 to 1000 nM | 10 to 1000 nM | 10 to 1000 nM
